From patent US9902726B2, “Pyridone-sulfone morphinan analogs as opioid receptor ligands” (Purdue Pharma L.P., priority 2013, dated 2018)

Legend:
κ opioid receptor [1] = target: T1, κ opioid receptor (Homo sapiens (Human), UniProt P41145); test: κ-opioid receptor [35S]GTPγS functional assay, U-2 OS cells; format: biochemical; conditions: for Emax: U-2 OS cells, relative to U69,593
Experimental: (§1) κ-Opioid Receptor Functional Assay Procedures: Functional [^35S]GTPγS binding assays were conducted as follows. κ opioid receptor membrane solution was prepared by sequentially adding final concentrations of 0.026 μg/μl κ membrane protein (in-house), 10 μg/mL saponin, 3 μM GDP and 0.20 nM [^35S]GTPγS to binding buffer (100 mM NaCl, 10 mM MgCl2, 20 mM HEPES, pH 7.4) on ice. The prepared membrane solution (190 μl/well) was transferred to 96-shallow well polypropylene plates containing 10 μl of 20× concentrated stock solutions of agonist prepared in DMSO. Plates were incubated for 30 min at a temperature of about 25° C. with shaking.
(§2) κ-Opioid Receptor Functional Data: κ GTP EC50 is the concentration of a compound providing 50% of the maximal response for the compound at a κ receptor.
(§3) κ GTP Emax (%) is the maximal effect elicited by a compound relative to the effect elicited by U69,593.

μ-opioid receptor [2] = target: T2, μ-opioid receptor (Homo sapiens (Human), UniProt P35372); test: μ-opioid receptor radioligand dose-displacement binding assay ([3H]-diprenorphine)
Experimental: Radioligand dose-displacement binding assays for μ-opioid receptors used 0.3 nM [^3H]-diprenorphine (Perkin Elmer, Shelton, Conn.), with 5 mg membrane protein/well in a final volume of 500 μl binding buffer (10 mM MgCl2, 1 mM EDTA, 5% DMSO, 50 mM HEPES, pH 7.4). Reactions were carried out in the absence or presence of increasing concentrations of unlabeled naloxone. All reactions were conducted in 96-deep well polypropylene plates for 2 hours at room temperature. Binding reactions were terminated by rapid filtration onto 96-well Unifilter GF/C filter plates (Perkin Elmer, Shelton, Conn.), presoaked in 0.5% polyethylenimine using a 96-well tissue harvester (Perkin Elmer, Shelton, Conn.) followed by performing three filtration washes with 500 μl of ice-cold binding buffer. Filter plates were subsequently dried at 50° C. for 2-3 hours. BetaScint scintillation cocktail (Perkin Elmer, Shelton, Conn.) was added (50 μl/well), and plates were counted using a Packard Top-Count for 1 min/well. The data were analyzed using the one-site competition curve fitting functions in GraphPad PRISM™ v.

μ-opioid receptor [3] = target: T2, μ-opioid receptor; test: μ-opioid receptor [35S]GTPγS functional assay, U-2 OS cells; format: biochemical; conditions: for Emax: U-2 OS cells, relative to DAMGO
Experimental: (§4) μ-Opioid Receptor Functional Assay Procedures: [^35S]GTPγS functional assays were conducted using freshly thawed μ-receptor membranes prepared in-house from a cell line expressing recombinant μ opioid receptor in a HEK-293, CHO, or U-2 OS cell background or purchased from a commercial source (Perkin Elmer, Shelton, Conn.). Assay reactions were prepared by sequentially adding the following reagents to binding buffer (100 mM NaCl, 10 mM MgCl2, 20 mM HEPES, pH 7.4) on ice (final concentrations indicated): membrane protein (0.026 mg/mL), saponin ([…]), GDP ([…]) and [^35S]GTPγS (0.20 nM; Perkin Elmer, Shelton, Conn.). The prepared membrane solution (190 μl/well) was transferred to 96-shallow well polypropylene plates containing 10 μl of 20× concentrated stock solutions of the agonist [D-Ala^2, N-methyl-Phe^4 Gly-ol^5]-enkephalin (DAMGO) prepared in dimethyl sulfoxide (DMSO). Plates were incubated for 30 min at about 25° C. with shaking. […] Data were analyzed using the sigmoidal dose-response curve fitting functions in GraphPad PRISM v. 3.0, or an in-house function for non-linear, sigmoidal dose-response curve-fitting. [^35S]GTPγS functional assays can also be conducted using freshly thawed μ-receptor membranes prepared from a cell line expressing recombinant opioid receptor in a CHO-K1 cell background.
(§5) μ-Opioid Receptor Functional Data: μ GTP EC50 is the concentration of a compound providing 50% of the maximal response for the compound at a μ-opioid receptor.
(§6) μ GTP Emax (%) is the maximal effect elicited by a compound relative to the effect elicited by DAMGO, a standard μ agonist. Generally, the μ GTP Emax (%) value measures the efficacy of a compound to treat or prevent pain or other Conditions.

[4] = target: recombinant human kappa opioid receptor (κ) (Homo sapiens (Human), UniProt P41145); test: κ-opioid receptor radioligand dose-displacement binding assay ([3H]-U69,593)
Experimental: κ-Opioid Receptor Binding Assay Procedures: Membranes from HEK-293 cells, CHO cells, or U-2 OS cells expressing the recombinant human kappa opioid receptor (κ) were prepared by lysing cells in ice cold hypotonic buffer (2.5 mM MgCl2, 50 mM HEPES, pH 7.4) (10 mL/10 cm dish) followed by homogenization with a tissue grinder/Teflon pestle. Membranes from a cell line naturally expressing kappa opioid receptor can also be used. Membranes were collected by centrifugation at 30,000×g for 15 min at 4° C. and pellets were resuspended in hypotonic buffer to a final concentration of 1-3 mg/mL. Protein concentrations were determined using the BioRad protein assay reagent with bovine serum albumen as standard. Aliquots of κ receptor membranes were stored at −80° C.
Radioligand dose displacement assays used 0.4 nM [^3H]-U69,593 (GE Healthcare, Piscataway, N.J.; 40 Ci/mmole) with 15 μg membrane protein (recombinant κ opioid receptor expressed in HEK 293 cells; in-house prep) in a final volume of 200 μl binding buffer (5% DMSO, 50 mM Trizma base, pH 7.4). Non-specific binding was determined in the presence of 10 μM unlabeled naloxone or U69,593. All reactions were performed in 96-well polypropylene plates for 1 hour at a temperature of about 25° C.

κ opioid receptor [5] = target: T1, κ opioid receptor; test: κ-opioid receptor [35S]GTPγS functional assay, HEK-293 or CHO cells; format: biochemical; conditions: for Emax: HEK-293 or CHO cells, relative to U69,593
Experimental: as §1, §2, §3

μ-opioid receptor [6] = target: T2, μ-opioid receptor; test: μ-opioid receptor [35S]GTPγS functional assay, HEK-293 or CHO cells; format: biochemical; conditions: for Emax: HEK-293 or CHO cells, relative to DAMGO
Experimental: as §4, §5, §6

Structure (SMILES) | EC50 (κ opioid receptor [1]) [nM] | Emax (κ opioid receptor [1]) [%] | Ki (μ-opioid receptor [2]) [nM] | EC50 (μ-opioid receptor [3]) [nM] | Emax (μ-opioid receptor [3]) [%] | Ki [4] [nM] | EC50 (κ opioid receptor [5]) [nM] | Emax (κ opioid receptor [5]) [%] | EC50 (μ-opioid receptor [6]) [nM] | Emax (μ-opioid receptor [6]) [%]
CS(=O)(=O)c1cc2c([nH]c1=O)C[C@]13CCN(CC4CC4)[C@H](Cc4ccc(O)cc41)[C@]3(O)C2 [Compound 5, (6R,6aS,12aR)-15-(cyclopropylmethyl)-2,6a-dihydroxy-9-(methylsulfonyl)-6a,7,11,12-tetrahydro-5H-6,12a-(epiminoethano)naphtho[2,1-g]quinolin-10(6H)-one] | 0.85 ± 0.075 | 55.7 ± 2.4 | 0.76 ± 0.13 | > 20000 | 2 | 0.36 ± 0.091 | 1.27 ± 0.3 | 10.3 ± 0.67 | > 20000 | 1
CN1CC[C@]23Cc4[nH]c(=O)c(S(=O)(=O)c5ccccc5)cc4C[C@@]2(O)[C@H]1Cc1ccc(O)cc13 [Compound 8, (6R,6aS,12aR)-2,6a-dihydroxy-15-methyl-9-(phenylsulfonyl)-6a,7,11,12-tetrahydro-5H-6,12a-(epiminoethano)naphtho[2,1-g]quinolin-10(6H)-one] | 35.8 ± 3.77 | 82.3 ± 3.67 |  | 77.5 ± 10.9 | 61.7 ± 1.67 | 19.5 ± 2.69 |  |  |  | 
O=c1[nH]c2c(cc1S(=O)(=O)c1ccccc1)C[C@H]1[C@H]3Cc4ccc(O)cc4[C@@]1(CCN3CC1CC1)C2 [Compound 10, (6R,6aR,12aS)-15-(cyclopropylmethyl)-2-hydroxy-9-(phenylsulfonyl)-6a,7,11,12-tetrahydro-5H-6,12a-(epiminoethano)naphtho[2,1-g]quinolin-10(6H)-one] |  |  |  |  |  |  |  |  | > 20000 | 2
CS(=O)(=O)c1cc2c([nH]c1=O)C[C@]13CCN(CC4CC4)[C@H](Cc4ccc(O)cc41)[C@@H]3C2 [Compound 9, (6R,6aR,12aS)-15-(cyclopropylmethyl)-2-hydroxy-9-(methylsulfonyl)-6a,7,11,12-tetrahydro-5H-6,12a-(epiminoethano)naphtho[2,1-g]quinolin-10(6H)-one] |  |  |  |  |  |  |  |  | > 20000 | 2.5
CN1CC[C@]23Cc4[nH]c(=O)c(S(=O)(=O)c5ccccc5)cc4C[C@H]2[C@H]1Cc1ccc(O)cc13 [Compound 12, (6R,6aR,12aS)-2-hydroxy-15-methyl-9-(phenylsulfonyl)-6,6a,7,12-tetrahydro-5H-6,12a-(epiminoethano)naphtho[2,1-g]quinolin-10(11H)-one] |  |  |  |  |  | 2.78 ± 0.75 | 17.2 ± 4.22 | 17.2 ± 1.04 | 83.1 ± 24.1 | 19.8 ± 2.63
CN1CC[C@]23Cc4[nH]c(=O)c(S(C)(=O)=O)cc4C[C@H]2[C@H]1Cc1ccc(O)cc13 [Compound 11, (6R,6aR,12aS)-2-hydroxy-15-methyl-9-(methylsulfonyl)-6,6a,7,12-tetrahydro-5H-6,12a-(epiminoethano)naphtho[2,1-g]quinolin-10(11H)-one] |  |  |  |  |  | 13.1 ± 2.27 | 107 ± 28.7 | 16.7 ± 1.21 | 259 ± 53.5 | 20.7 ± 1.76
O=c1[nH]c2c(cc1S(=O)(=O)c1ccccc1)C[C@@]1(O)[C@H]3Cc4ccc(O)cc4[C@@]1(CCN3CC1CC1)C2 [Compound 6, (6R,6aS,12aR)-15-(cyclopropylmethyl)-2,6a-dihydroxy-9-(phenylsulfonyl)-6a,7,11,12-tetrahydro-5H-6,12a-(epiminoethano)naphtho[2,1-g]quinolin-10(6H)-one] | 0.26 ± 0.055 | 33.2 ± 2.84 |  | > 20000 | 2 |  |  |  |  | 
CN1CC[C@]23Cc4[nH]c(=O)c(S(C)(=O)=O)cc4C[C@@]2(O)[C@H]1Cc1ccc(O)cc13 [Compound 7, (6R,6aS,12aR)-2,6a-dihydroxy-15-methyl-9-(methylsulfonyl)-6a,7,11,12-tetrahydro-5H-6,12a-(epiminoethano)naphtho[2,1-g]quinolin-10(6H)-one] | 203 ± 47.7 | 71.3 ± 3.33 |  | 148 ± 6.21 | 68 ± 1.15 |  |  |  |  | 
